Assay results as given in ChEMBL document CHEMBL1201862, “PubChem BioAssay data set” (2004).
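Values below derive from 48-hour exposures of cells grown in 96-well plates, with endpoints linearly interpolated between the two concentrations bracketing the appropriate inhibition level. Abbreviation: GI50, concentration required for 50% inhibition of growth.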 Calls of active or inactive are those of the source. Rule as the data show it: active = GI50 up to about 1.1 µM and inactive = higher.

What was measured:
Experiment in all cases: NCI anticancer screen, dose series, 48 h
[1] = system: DMS-273
[2] = system: HL-60
[3] = system: UO-31
[4] = system: SK-MEL-28
[5] = system: KM12
[6] = system: HT-29
[7] = system: U-251
[8] = system: RPMI-8226
[9] = system: HCT-116
[10] = system: Malme-3M
[11] = system: M14
[12] = system: SN12C
[13] = system: OVCAR-5
[14] = system: LOX IMVI
[15] = system: SK-MEL-2
[16] = system: HOP-92
[17] = system: CCRF-CEM
[18] = system: SF-295
[19] = system: SW-620
[20] = system: OVCAR-8
[21] = system: NCI-H522
[22] = system: SF-268
[23] = system: SF-539
[24] = system: NCI-H23
[25] = system: EKVX
[26] = system: CAKI-1
[27] = system: MOLT-4
[28] = system: HCC 2998
[29] = system: 786-0
[30] = system: SNB-75
[31] = system: DLD-1
[32] = system: OVCAR-3
[33] = system: LXFL 529
[34] = system: A549
[35] = system: HOP-18
[36] = system: OVCAR-4
[37] = system: K562
[38] = system: ACHN
[39] = system: COLO 205
[40] = system: RXF 631
[41] = system: HOP-62
[42] = system: NCI-H460
[43] = system: M19-MEL
[44] = system: SK-MEL-5
[45] = system: HCT-15
[46] = system: UACC-62
[47] = system: XF498
[48] = system: DMS-114
[49] = system: A498
[50] = system: TK-10
[51] = system: SNB-19
[52] = system: SK-OV-3
[53] = system: UACC-257
[54] = system: IGROV-1
[55] = system: KM-20L2
[56] = system: RXF 393
[57] = system: SR
[58] = system: NCI-H226
[59] = system: SNB-78

Q: `COC(=O)CCC(=O)NC1C2CC3CC(C2)CC1C3` (stereo not given) was tested. Which GI50 [1] did it give?
A: > 100 µM (inactive)

Q: And the GI50 [2]?
A: > 100 µM (inactive)

Q: And the GI50 [3]?
A: > 100 µM (inactive)

Q: What about the GI50 [4] of the same molecule?
A: > 100 µM (inactive)

Q: And the GI50 [5]?
A: > 100 µM (inactive)

Q: What about the GI50 [6] of the same molecule?
A: > 100 µM (inactive)

Q: What about the GI50 [7] of the same molecule?
A: > 100 µM (inactive)

Q: What about the GI50 [8] of the same molecule?
A: > 100 µM (inactive)

Q: And the GI50 [9]?
A: > 100 µM (inactive)

Q: What about the GI50 [10] of the same molecule?
A: > 100 µM (inactive)

Q: And the GI50 [11]?
A: > 100 µM (inactive)

Q: And the GI50 [12]?
A: > 100 µM (inactive)

Q: What about the GI50 [13] of the same molecule?
A: > 100 µM (inactive)

Q: And the GI50 [14]?
A: > 100 µM (inactive)

Q: What about the GI50 [15] of the same molecule?
A: > 100 µM (inactive)

Q: And the GI50 [16]?
A: > 100 µM (inactive)

Q: And the GI50 [17]?
A: > 100 µM (inactive)

Q: What about the GI50 [18] of the same molecule?
A: > 100 µM (inactive)

Q: And the GI50 [19]?
A: > 100 µM (inactive)

Q: And the GI50 [20]?
A: > 100 µM (inactive)

Q: And the GI50 [21]?
A: > 100 µM (inactive)

Q: What about the GI50 [22] of the same molecule?
A: > 100 µM (inactive)

Q: And the GI50 [23]?
A: > 100 µM (inactive)

Q: What about the GI50 [24] of the same molecule?
A: > 100 µM (inactive)

Q: And the GI50 [25]?
A: > 100 µM (inactive)

Q: What about the GI50 [26] of the same molecule?
A: > 100 µM (inactive)

Q: And the GI50 [27]?
A: > 100 µM (inactive)

Q: And the GI50 [28]?
A: > 100 µM (inactive)

Q: And the GI50 [29]?
A: > 100 µM (inactive)

Q: And the GI50 [30]?
A: > 43.1 µM (inactive)

Q: What about the GI50 [31] of the same molecule?
A: > 100 µM (inactive)

Q: What about the GI50 [32] of the same molecule?
A: > 100 µM (inactive)

Q: And the GI50 [33]?
A: > 100 µM (inactive)

Q: And the GI50 [34]?
A: > 100 µM (inactive)

Q: And the GI50 [35]?
A: > 100 µM (inactive)

Q: And the GI50 [36]?
A: > 100 µM (inactive)

Q: And the GI50 [37]?
A: > 100 µM (inactive)

Q: And the GI50 [38]?
A: > 100 µM (inactive)

Q: What about the GI50 [39] of the same molecule?
A: > 100 µM (inactive)

Q: And the GI50 [40]?
A: > 100 µM (inactive)

Q: What about the GI50 [41] of the same molecule?
A: > 100 µM (inactive)

Q: And the GI50 [42]?
A: > 100 µM (inactive)

Q: And the GI50 [43]?
A: > 100 µM (inactive)

Q: What about the GI50 [44] of the same molecule?
A: > 100 µM (inactive)

Q: What about the GI50 [45] of the same molecule?
A: > 100 µM

Q: What about the GI50 [46] of the same molecule?
A: > 100 µM (inactive)

Q: What about the GI50 [47] of the same molecule?
A: > 100 µM (inactive)

Q: What about the GI50 [48] of the same molecule?
A: > 100 µM (inactive)

Q: What about the GI50 [49] of the same molecule?
A: > 100 µM (inactive)

Q: And the GI50 [50]?
A: > 100 µM (inactive)

Q: And the GI50 [51]?
A: > 100 µM (inactive)

Q: And the GI50 [52]?
A: > 100 µM (inactive)

Q: And the GI50 [53]?
A: > 100 µM (inactive)

Q: And the GI50 [54]?
A: > 100 µM (inactive)

Q: What about the GI50 [55] of the same molecule?
A: > 100 µM (inactive)

Q: What about the GI50 [56] of the same molecule?
A: > 100 µM (inactive)

Q: Which results are given for `CCOC(=O)Cn1c2ccccc2c(=O)c2cc(C)c(C)c(C#N)c21`?
A: GI50 [1]: > 100 µM (inactive); GI50 [2]: > 100 µM (inactive); GI50 [57]: > 100 µM (inactive); GI50 [3]: 68.5 µM (inactive); GI50 [4]: > 100 µM (inactive); GI50 [6]: > 100 µM (inactive); GI50 [7]: > 100 µM (inactive); GI50 [8]: > 100 µM (inactive); GI50 [9]: 53.5 µM (inactive); GI50 [10]: > 100 µM (inactive); GI50 [12]: > 100 µM (inactive); GI50 [13]: > 100 µM (inactive); GI50 [14]: > 100 µM (inactive); GI50 [15]: > 100 µM (inactive); GI50 [16]: 21.8 µM (inactive); GI50 [17]: > 100 µM (inactive); GI50 [18]: 40.4 µM (inactive); GI50 [19]: > 100 µM (inactive); GI50 [20]: 84.3 µM (inactive); GI50 [22]: > 100 µM (inactive); GI50 [23]: > 100 µM (inactive); GI50 [24]: > 100 µM (inactive); GI50 [25]: > 100 µM (inactive); GI50 [27]: > 100 µM (inactive); GI50 [28]: > 100 µM (inactive); GI50 [29]: > 100 µM (inactive); GI50 [30]: 23.2 µM (inactive); GI50 [31]: > 100 µM (inactive); GI50 [32]: > 100 µM (inactive); GI50 [33]: > 100 µM (inactive); GI50 [34]: > 100 µM (inactive); GI50 [35]: > 100 µM (inactive); GI50 [38]: > 100 µM (inactive); GI50 [39]: > 100 µM (inactive); GI50 [40]: > 100 µM (inactive); GI50 [41]: 40.7 µM (inactive); GI50 [42]: > 100 µM (inactive); GI50 [43]: > 100 µM (inactive); GI50 [45]: > 100 µM; GI50 [46]: > 100 µM (inactive); GI50 [58]: > 100 µM (inactive); GI50 [47]: 30.2 µM (inactive); GI50 [50]: > 100 µM (inactive); GI50 [51]: > 100 µM (inactive); GI50 [52]: 55.5 µM (inactive); GI50 [53]: > 100 µM (inactive); GI50 [54]: > 100 µM (inactive); GI50 [55]: > 100 µM (inactive); GI50 [56]: 63.7 µM (inactive); GI50 [59]: > 100 µM (inactive)

Q: What does the source list for `COc1ccc(OC(C(=O)O)C(C)C)c2c1CCCC2=O` (stereo not given)?
A: GI50 [1]: > 100 µM (inactive); GI50 [2]: > 100 µM (inactive); GI50 [3]: > 100 µM (inactive); GI50 [4]: > 100 µM (inactive); GI50 [5]: > 100 µM (inactive); GI50 [6]: > 100 µM (inactive); GI50 [7]: > 100 µM (inactive); GI50 [8]: > 100 µM (inactive); GI50 [9]: > 100 µM (inactive); GI50 [10]: > 100 µM (inactive); GI50 [11]: > 100 µM (inactive); GI50 [12]: > 100 µM (inactive); GI50 [13]: > 100 µM (inactive); GI50 [14]: > 100 µM (inactive); GI50 [15]: > 100 µM (inactive); GI50 [17]: > 100 µM (inactive); GI50 [18]: > 100 µM (inactive); GI50 [19]: > 100 µM (inactive); GI50 [20]: > 100 µM (inactive); GI50 [21]: > 100 µM (inactive); GI50 [22]: > 100 µM (inactive); GI50 [23]: > 100 µM (inactive); GI50 [24]: > 100 µM (inactive); GI50 [25]: > 100 µM (inactive); GI50 [26]: > 100 µM (inactive); GI50 [27]: > 100 µM (inactive); GI50 [28]: > 100 µM (inactive); GI50 [29]: > 100 µM (inactive); GI50 [31]: > 100 µM (inactive); GI50 [32]: > 100 µM (inactive); GI50 [33]: > 100 µM (inactive); GI50 [34]: > 100 µM (inactive); GI50 [35]: > 100 µM (inactive); GI50 [36]: > 100 µM (inactive); GI50 [37]: > 100 µM (inactive); GI50 [38]: > 100 µM (inactive); GI50 [39]: > 100 µM (inactive); GI50 [40]: > 100 µM (inactive); GI50 [41]: > 100 µM (inactive); GI50 [42]: > 100 µM (inactive); GI50 [43]: > 100 µM (inactive); GI50 [44]: > 100 µM (inactive); GI50 [45]: > 100 µM; GI50 [46]: > 100 µM (inactive); GI50 [47]: > 100 µM (inactive); GI50 [48]: > 100 µM (inactive); GI50 [49]: > 100 µM (inactive); GI50 [50]: > 100 µM (inactive); GI50 [51]: > 100 µM (inactive); GI50 [52]: > 100 µM (inactive); GI50 [53]: > 100 µM (inactive); GI50 [54]: > 100 µM (inactive); GI50 [55]: > 100 µM (inactive); GI50 [59]: > 100 µM (inactive)
